Results: patent publication US9670227B2, “Thienopyrimidine derivatives, a process for their preparation and pharmaceutical compositions containing them” (LES LABORATOIRES SERVIER, priority 2013, dated 2017)
Where two headings read alike, the source gives them in different places.

What was measured:
Mcl-1 protein = Mcl-1 protein (UniProtKB primary accession number: Q07820) (Homo sapiens, UniProt Q07820); assay: Inhibition of Mcl-1 by fluorescence polarisation, Method 1; type: binding; details: for IC50: read-out: IC50 (M) Mcl-1 FP
Summary of the method: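 Buffer of 10 mM HEPES pH 7.4 with 150 mM NaCl and 0.05% Tween 20 held 5 nM Mcl-1 and 1 nM fluorescein-tagged ligand (final). Compounds were tested as 11-point serial dilutions at 5% final DMSO, and binding was read by FP.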

[1] = system: H929 multiple myeloma tumour line; assay: In vitro cytotoxicity, Microculture Tetrazolium Assay; type: cell-based; details: H929 cells, 48 hours exposure, read-out: IC50 (μM) MTT H929
Method: The cytotoxicity studies were carried out on the H929 multiple myeloma tumour line.
The cells are distributed onto microplates and exposed to the test compounds for 48 hours.

[2] = fluorescence polarisation test, Method 2 values are underlined in the patent (underlining not visible here)
[3] = Homo sapiens, NCI-H929, 48 h, MTT
[4] = fluorescence polarisation, Method 1, or Method 2

Mcl-1 protein, sequence (Q07820 whole entry): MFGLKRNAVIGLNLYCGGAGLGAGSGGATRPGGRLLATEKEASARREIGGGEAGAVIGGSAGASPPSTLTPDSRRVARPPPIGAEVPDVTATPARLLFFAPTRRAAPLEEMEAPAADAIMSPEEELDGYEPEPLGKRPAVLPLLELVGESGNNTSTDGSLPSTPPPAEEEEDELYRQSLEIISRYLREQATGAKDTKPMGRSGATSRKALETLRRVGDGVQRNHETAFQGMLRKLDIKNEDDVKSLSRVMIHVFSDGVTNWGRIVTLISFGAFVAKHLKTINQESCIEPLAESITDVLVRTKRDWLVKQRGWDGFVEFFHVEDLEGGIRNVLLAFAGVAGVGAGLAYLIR

Row | IC50 (Mcl-1 protein; [2]) [M] | IC50 (Mcl-1 protein; [4]) [M] | Compound | IC50 [1, 3] [µM] | other results
1 |  | 5.9e-08 | COc1ccccc1CC(Oc1ncnc2sc(-c3cccc(SC)c3)c(-c3ccc(OCCN4CCN(C)CC4)c(Cl)c3C)c12)C(=O)O [Example 558, (2R)-2-[((5Sa)-5-{3-chloro-2-methyl-4-[2-(4-methylpiperazin-1-yl)ethoxy]phenyl}-6-[3-(methylsulfanyl)phenyl]thieno[2,3-d]pyrimidin-4-yl)oxy]-3-(2-methoxyphenyl)propanoic acid] | 0.742 | 
2 | 1.6e-08 |  | COc1ccccc1CC(Oc1ncnc2sc(-c3ccco3)c(-c3ccc(OCC4CCCN4C)c(Cl)c3C)c12)C(=O)O [Example 299, (2R)-2-{[(5Sa)-5-(3-chloro-2-methyl-4-{[(2R)-1-methylpyrrolidin-2-yl]methoxy}phenyl)-6-(furan-2-yl)thieno[2,3-d]pyrimidin-4-yl]oxy}-3-(2-methoxyphenyl)propanoic acid] |  | IC50 ([1]; MTT): 1.03 µM
3 | 6.3e-09 |  | Cc1c(-c2c(-c3ccc(F)o3)sc3ncnc(OC(Cc4ccccc4OCc4ccnc(OCC(F)(F)F)n4)C(=O)O)c23)ccc(OCCN2CCN(C)CC2)c1Cl [Example 178, (2R)-2-{[(5Sa)-5-{3-chloro-2-methyl-4-[2-(4-methylpiperazin-1-yl)ethoxy]phenyl}-6-(5-fluorofuran-2-yl)thieno[2,3-d]pyrimidin-4-yl]oxy}-3-(2-{[2-(2,2,2-trifluoroethoxy)pyrimidin-4-yl]methoxy}phenyl)propanoic acid] | 0.002 | 
4 | 8.6e-09 |  | Cc1c(-c2c(-c3ccc(Cl)o3)sc3ncnc(OC(Cc4ccccc4OCc4ccccn4)C(=O)O)c23)ccc(OCCN2CCN(C)CC2)c1Cl [Example 366, (2R)-2-{[6-(5-chlorofuran-2-yl)-(5Sa)-5-{3-chloro-2-methyl-4-[2-(4-methylpiperazin-1-yl)ethoxy]phenyl}thieno[2,3-d]pyrimidin-4-yl]oxy}-3-[2-(pyridin-2-ylmethoxy)phenyl]propanoic acid] | 0.346 | 
5 |  | 9.1e-07 | Cc1c(-c2c(-c3cc4ccccc4s3)sc3ncnc(OC(Cc4ccccc4)C(=O)O)c23)ccc(OCCN2CCN(C)CC2)c1Cl [Example 497, (2R)-2-{[6-(1-benzothiophen-2-yl)-(5Sa)-5-{3-chloro-2-methyl-4-[2-(4-methylpiperazin-1-yl)ethoxy]phenyl}thieno[2,3-d]pyrimidin-4-yl]oxy}-3-phenylpropanoic acid] | 5.95 | 
6 | 1.2e-08 |  | COCCOCCOCCOc1ccccc1CC(Oc1ncnc2sc(-c3ccc(F)cc3)c(-c3ccc(OCCN4CCN(C)CC4)c(Cl)c3C)c12)C(=O)O [Example 106, (2R)-2-{[(5Sa)-5-{3-chloro-2-methyl-4-[2-(4-methylpiperazin-1-yl)ethoxy]phenyl}-6-(4-fluorophenyl)thieno[2,3-d]pyrimidin-4-yl]oxy}-3-(2-{2-[2-(2-methoxyethoxy)ethoxy]ethoxy}phenyl)propanoic acid] | 0.195 | 
7 | 2.4e-08 |  | Cc1c(-c2c(-c3ccc(F)cc3)sc3ncnc(OC(Cc4ccccc4OCCF)C(=O)O)c23)ccc(OCCN2CCN(C)CC2)c1Cl [Example 103, (2R)-2-{[(5Sa)-5-{3-chloro-2-methyl-4-[2-(4-methylpiperazin-1-yl)ethoxy]phenyl}-6-(4-fluorophenyl)thieno[2,3-d]pyrimidin-4-yl]oxy}-3-[2-(2-fluoroethoxy)phenyl]propanoic acid] | 0.214 | 
8 |  | 3.5e-08 | Cc1c(-c2c(Br)sc3ncnc(OC(Cc4ccccc4)C(=O)O)c23)ccc(OCCN2CCN(C)CC2)c1Cl [Example 518, (2R)-2-[(6-bromo-(5Sa)-5-{3-chloro-2-methyl-4-[2-(4-methylpiperazin-1-yl)ethoxy]phenyl}thieno[2,3-d]pyrimidin-4-yl)oxy]-3-phenylpropanoic acid] | 9.18 | 

Second part, the molecule before the results:

Row | Compound | IC50 (Mcl-1 protein; [2]) [M] | IC50 (Mcl-1 protein; [4]) [M] | IC50 [1, 3] [µM] | other results
9 | CCc1sc2ncnc(O[C@H](Cc3ccccc3)C(=O)O)c2c1-c1ccc(OCCN(C)C)c(Cl)c1C [Example 408, (2R)-2-[((5Ra)-5-{3-chloro-4-[2-(dimethylamino)ethoxy]-2-methylphenyl}-6-ethylthieno[2,3-d]pyrimidin-4-yl)oxy]-3-phenylpropanoic acid] |  |  |  | percentage fluorescence polarisation inhibition, Mcl-1 FP (Mcl-1 protein; partial inhibitors, @ 10 uM test compound): 26.25% @ 10 uM; IC50 ([1]; MTT): 15.9 µM
10 | Cc1c(-c2c(-c3ccc(F)cc3)sc3ncnc(OC(Cc4ccccc4OCc4cocn4)C(=O)O)c23)ccc(OCCN2CCN(C)CC2)c1Cl [Example 98, (2R)-2-{[(5Sa)-5-{3-chloro-2-methyl-4-[2-(4-methylpiperazin-1-yl)ethoxy]phenyl}-6-(4-fluorophenyl)thieno[2,3-d]pyrimidin-4-yl]oxy}-3-[2-(1,3-oxazol-4-ylmethoxy)phenyl]propanoic acid] | 3.3e-07 |  | 0.118 | 
11 | COc1ccccc1-c1nccc(COc2ccccc2CC(Oc2ncnc3sc(-c4ccc(OCc5cccc(C)c5)cc4)c(-c4ccc(OCCN5CCN(C)CC5)c(Cl)c4C)c23)C(=O)O)n1 [Example 773, (2R)-2-[((5Sa)-5-{3-chloro-2-methyl-4-[2-(4-methylpiperazin-1-yl)ethoxy]phenyl}-6-{4-[(3-methylbenzyl)oxy]phenyl}thieno[2,3-d]pyrimidin-4-yl)oxy]-3-(2-{[2-(2-methoxyphenyl)pyrimidin-4-yl]methoxy}phenyl)propanoic acid] |  | 1.25e-09 | 0.017 | 
12 | Cc1c(-c2c(-c3ccco3)sc3ncnc(OC(Cc4ccccc4NC(=O)OC(C)(C)C)C(=O)O)c23)ccc(OCCN2CCN(C)CC2)c1Cl [Example 358, (2R)-3-{2-[(tert-butoxycarbonyl)amino]phenyl}-2-{[(5Sa)-5-{3-chloro-2-methyl-4-[2-(4-methylpiperazin-1-yl)ethoxy]phenyl}-6-(furan-2-yl)thieno[2,3-d]pyrimidin-4-yl]oxy}propanoic acid] | 9.5e-09 |  | 1.61 | 
13 | COc1ccccc1CC(Oc1ncnc2sc(-c3ccc(F)c(OCC(F)(F)F)c3)c(-c3ccc(OCCN4CCN(C)CC4)c(Cl)c3C)c12)C(=O)O [Example 535, (2R)-2-[(5Sa)-5-{3-chloro-2-methyl-4-[2-(4-methylpiperazin-1-yl)ethoxy]phenyl}-6-[4-fluoro-3-(2,2,2-trifluoroethoxy)phenyl]thieno[2,3-d]pyrimidin-4-yl)oxy]-3-(2-methoxyphenyl)propanoic acid] |  | 1.3e-07 | 1.84 | 
14 | Cc1c(-c2c(-c3ccco3)sc3ncnc(OC(Cc4ccccc4F)C(=O)O)c23)ccc(OCCN2CCN(C)CC2)c1Cl [Example 341, (2S)-2-{[(5Ra)-5-{3-chloro-2-methyl-4-[2-(4-methylpiperazin-1-yl)ethoxy]phenyl}-6-(furan-2-yl)thieno[2,3-d]pyrimidin-4-yl]oxy}-3-(2-fluorophenyl)propanoic acid] | 3.5e-08 |  |  | IC50 ([1]; MTT): 0.706 µM
15 | COc1ccccc1-c1nccc(COc2ccccc2CC(Oc2ncnc3sc(-c4ccc(F)cc4)c(-c4ccc(OCCN5CCN(C)CC5)c(Cl)c4C)c23)C(=O)OCCN(C)C)n1 [Example 813, 2-(dimethylamino)ethyl (2R)-2-{[(5Sa)-5-{3-chloro-2-methyl-4-[2-(4-methylpiperazin-1-yl)ethoxy]phenyl}-6-(4-fluorophenyl)thieno[2,3-d]pyrimidin-4-yl]oxy}-3-(2-{[2-(2-methoxyphenyl)pyrimidin-4-yl]methoxy}phenyl)propanoate] |  |  |  | IC50 (Mcl-1 protein; fluorescence polarisation test, Method 1, or Method 2 where the value is underlined (underlining not visible)): 5.47e-09 M; IC50 ([1]; Homo sapiens, NCI-H929, 48 h, cell viability): 0.011 µM
16 | CCc1sc2ncnc(OC(Cc3ccccc3)C(=O)O)c2c1-c1ccc(OCCCN2CCCC2=O)c(Cl)c1C [Example 401, (2R)-2-[((5Sa)-5-{3-chloro-2-methyl-4-[3-(2-oxopyrrolidin-1-yl)propoxy]phenyl}-6-ethylthieno[2,3-d]pyrimidin-4-yl)oxy]-3-phenylpropanoic acid] |  | 4.9e-08 | 22.3 | 
17 | COc1cc(-c2sc3ncnc(OC(Cc4ccccc4OCC(F)(F)F)C(=O)O)c3c2-c2ccc(OCCN3CCN(C)CC3)c(Cl)c2C)ccc1F [Example 380, (2R)-2-{[(5Sa)-5-{3-chloro-2-methyl-4-[2-(4-methylpiperazin-1-yl)ethoxy]phenyl}-6-(4-fluoro-3-methoxyphenyl)thieno[2,3-d]pyrimidin-4-yl]oxy}-3-[2-(2,2,2-trifluoroethoxy)phenyl]propanoic acid] | 1.1e-08 |  | 0.162 | 
18 | Cc1cnc(COc2ccccc2CC(Oc2ncnc3sc(-c4ccco4)c(-c4ccc(OCCN5CCN(C)CC5)c(Cl)c4C)c23)C(=O)O)cn1 [Example 268, (2R)-2-{[(5Sa)-5-{3-chloro-2-methyl-4-[2-(4-methylpiperazin-1-yl)ethoxy]phenyl}-6-(furan-2-yl)thieno[2,3-d]pyrimidin-4-yl]oxy}-3-{2-[(5-methylpyrazin-2-yl)methoxy]phenyl}propanoic acid] | 8.2e-09 |  | 0.086 | 
19 | CSc1nccc(COc2ccccc2CC(Oc2ncnc3sc(-c4ccc(F)cc4)c(-c4ccc(OCCN5CCN(C)CC5)c(Cl)c4C)c23)C(=O)O)n1 [Example 65, (2R)-2-{[(5Sa)-5-{3-chloro-2-methyl-4-[2-(4-methylpiperazin-1-yl)ethoxy]phenyl}-6-(4-fluorophenyl)thieno[2,3-d]pyrimidin-4-yl]oxy}-3-(2-{[2-(methylsulfanyl)pyrimidin-4-yl]methoxy}phenyl)propanoic acid] | 1e-08 |  | 0.043 | 
